Where two headings read alike, the source gives them in different places. Peptide text beside a SMILES is read from it.
How the values were obtained:
[1] = target: T1, cynomolgus monkey B2 receptor (Macaca fascicularis, UniProt A0A7N9CWN6); details: mean ± S.D.
T1 sequence (A0A7N9CWN6 1-391): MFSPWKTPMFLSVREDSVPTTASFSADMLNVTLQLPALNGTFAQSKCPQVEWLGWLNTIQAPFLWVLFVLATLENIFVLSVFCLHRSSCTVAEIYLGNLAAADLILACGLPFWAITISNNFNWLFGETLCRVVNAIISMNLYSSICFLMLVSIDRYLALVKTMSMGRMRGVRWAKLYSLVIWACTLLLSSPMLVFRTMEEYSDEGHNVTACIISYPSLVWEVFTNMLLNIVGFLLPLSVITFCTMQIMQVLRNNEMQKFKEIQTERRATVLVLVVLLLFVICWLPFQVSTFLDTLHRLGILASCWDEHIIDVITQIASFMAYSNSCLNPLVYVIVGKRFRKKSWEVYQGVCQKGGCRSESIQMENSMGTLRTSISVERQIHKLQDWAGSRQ

human myc-B2 receptor = target: T2, human myc-B2 receptor (Homo sapiens, UniProt P30411); experiment: c-Fos immunoblot, HEK 293a cells stably expressing myc-B2 receptor; assay type: cell-based; details: BK 10 nM
T2 construct: expressed in transfected cells
T2 sequence (P30411 1-391): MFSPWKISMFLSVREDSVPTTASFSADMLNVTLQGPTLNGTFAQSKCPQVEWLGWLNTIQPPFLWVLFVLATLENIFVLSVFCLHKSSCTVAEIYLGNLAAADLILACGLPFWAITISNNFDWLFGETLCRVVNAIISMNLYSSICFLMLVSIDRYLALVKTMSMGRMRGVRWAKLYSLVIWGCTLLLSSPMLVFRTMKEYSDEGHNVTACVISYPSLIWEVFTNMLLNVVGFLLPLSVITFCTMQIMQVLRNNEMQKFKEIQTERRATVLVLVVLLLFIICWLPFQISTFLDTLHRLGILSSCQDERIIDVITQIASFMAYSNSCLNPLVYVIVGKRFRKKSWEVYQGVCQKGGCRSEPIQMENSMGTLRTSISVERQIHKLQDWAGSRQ
From the text: Supplementary Methods: Immunoblots for c-Fos signaling
The construction of myc-tagged B2 receptor expression vector containing the human receptor sequence has been recently reported, as well as the derivation of HEK293a cell lines that stably express the construction (Charest-Morin et al., 2015). Immunoblotting experiments, conducted as described (Koumbadinga et al., 2010), were used to study the effect of selected antagonists on BK-induced signaling. Briefly, HEK 293a cells stably expressing the human myc-B2 receptor were stimulated with BK agonists for 60 min at 37°C, with or without a pretreatment with the antagonist (applied 15 min before BK). Total cell extracts were immunoblotted to detect c-Fos expression using the K-25 rabbit polyclonal antibodies (Santa Cruz Biotechnology, Dallas, TX; dilution 1:50,000). In these experiments, β-actin was used as a loading control and was detected using the monoclonal anti-β-actin antibody, clone AC-15 (Sigma-Aldrich; dilution 1:50,000).

microsomal stability = details: for microsomal CLint at 1 µM: male, Wistar, rat, liver microsomes, pH 7.4
5-HT2A receptor = target: T3, 5-HT2A receptor (Homo sapiens, UniProt P28223); experiment: umbilical vein, serotonin-induced contraction; details: Compound 2 10 μM; Compound 3 1 μM
T3 construct: other endogenously expressed receptors in the human umbilical vein; from tissue; host or cells: human umbilical vein rings
T3 sequence (P28223 whole entry): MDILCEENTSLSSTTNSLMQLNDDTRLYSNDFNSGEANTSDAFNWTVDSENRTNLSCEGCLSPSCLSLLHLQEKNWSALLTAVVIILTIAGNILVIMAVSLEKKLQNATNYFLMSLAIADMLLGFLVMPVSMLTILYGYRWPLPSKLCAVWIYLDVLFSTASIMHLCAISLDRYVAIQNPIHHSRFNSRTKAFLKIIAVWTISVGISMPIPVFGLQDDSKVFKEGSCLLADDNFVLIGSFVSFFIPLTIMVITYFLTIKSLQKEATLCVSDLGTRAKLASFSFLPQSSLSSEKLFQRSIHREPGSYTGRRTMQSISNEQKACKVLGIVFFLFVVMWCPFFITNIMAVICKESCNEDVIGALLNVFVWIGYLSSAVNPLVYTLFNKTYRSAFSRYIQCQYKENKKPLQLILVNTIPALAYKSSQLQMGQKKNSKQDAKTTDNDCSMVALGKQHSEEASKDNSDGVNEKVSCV
From the text: (§1) The local ethics committee (CHU de Québec-Université Laval) had approved the project (File no. 2017-3720). Umbilical cords were obtained following elective caesarean sections; all problematic deliveries are excluded. Informed consent was obtained from the mothers. The cords were transported from the maternity ward to the laboratory in sterile Hank's balanced salt solution containing penicillin and streptomycin. Segments of umbilical veins were dissected carefully from the cords and a metal rod was inserted in the lumen. Excess connective tissue was excised and rings (2–3 mm wide) were cut. Rings of umbilical veins were suspended in 5-mL organ chambers containing oxygenated (95% O2, 5% CO2) and warmed (37°C) Krebs' solution between a metal hook and a thread loop. This solution had the following composition: NaCl 117.5 mM, KCl 4.7 mM, KH2PO4 1.2 mM, MgSO4 1.18 mM, CaCI2 2.5 mM, NaHCO3 25.0 mM, and D-glucose 5.5 mM. A baseline of one gram-weight was applied to these preparations. Changes of tension were recorded by using isometric transducers (model 52-9545, Harvard Bioscience, South Natick MA). Eight tissue baths are operated in parallel.
(§2) For this purpose, contractile responses to serotonin, acting on the 5-HT2A receptor, and U-46619, acting at the prostanoid TP receptor, were measured ([Rogines-Velo et al., 2002]; [Daray et al., 2003]).

B2 receptor [2] = target: T4, B2 receptor (Homo sapiens, UniProt P30411); experiment: [^3H]BK competition binding assay, CHO cell membranes; set-up: host or cells: CHO cells; details: for IC50 / Ki: competition with 0.3 nM [^3H]BK; for fold lower affinity compared to Compound 3 and icatibant: radioligand binding
T4 sequence (P30411 1-391): T2 sequence (P30411 1-391)

[3] = target: T5, endogenous human B2 receptor (Homo sapiens, UniProt P30411); experiment: human isolated umbilical vein contractility assay, BK-induced contraction; details: for type of antagonism of BK: BK concentration-effect curves, Emax; for pA2 / Kb: Schild plot; for pA2 / Kb / Schild plot slope: Pharm/PCS, ± S.E.M. where given; for Kb: read-out: pA2 (converted); for Schild plot slope: Schild regression; for Maximal BK-induced response in absolute force units ± S.E.M.: vehicle: Icatibant 1.90, Compound 1 […]; for pA2 value converted into nM: potency from pA2
T5 construct: BK-induced contraction at endogenous human B2 receptor in the umbilical vein model; from tissue; host or cells: human umbilical vein rings (donor cords after elective caesarean section)
T5 sequence (P30411 1-391): T2 sequence (P30411 1-391)

[4] = target: T6, myc-tagged human B2 receptor (Homo sapiens, UniProt P30411); experiment: antibody internalization assay, HEK 293a cells; assay type: cell-based; details: BK 100 nM; antagonist 1 nM to 1 μM, 15 min before BK
T6 construct: expressed in transfected cells
Protocol: B2 receptor-mediated transport of immune complexes constructed at the cell surface was previously reported ([Bawolak et al., 2011]). Intact HEK 293a cells stably expressing the N-terminally myc-tagged B2 receptor construction (human sequence, [Charest-Morin et al., 2015]) were treated with the monoclonal anti-myc antibody (clone 4A6) conjugated with AlexaFluor-488 (Millipore, dilution 1:500) added to the culture medium. Cells were further incubated at 37°C. Without rinsing, a selected antagonist or their DMSO vehicle was added 5 min later, and BK (100 nM) or its saline vehicle 15 min later. After an additional 30 min incubation period at 37°C, cells were rinsed 3 times with Hank's balanced salt solution (Multicell Wisent, St. Bruno, Canada) and photographed in transmission and epifluorescence using an Olympus BX51 microscope coupled to a CoolSnap HQ digital camera (filters for AlexaFluor 488: excitation 460–500 nm, emission 510–560 nm).

B2 receptor [5] = target: T4, B2 receptor; experiment: Ca^2+ mobilization assay, transfected CHO cells; assay type: cell-based; set-up: host or cells: CHO cells; details: for IC50 / Kb: inhibition of response to 0.03 nM BK
[6] = Caco-2 permeation assay (bidirectional); details: human
prostanoid TP receptor = target: T7, prostanoid TP receptor (Homo sapiens, UniProt P21731); experiment: umbilical vein, U-46619-induced contraction; details: Compound 2 10 μM; Compound 3 1 μM
T7 construct: endogenous human prostanoid TP receptors in the umbilical vein model; from tissue; host or cells: human umbilical vein rings
T7 sequence (P21731 whole entry): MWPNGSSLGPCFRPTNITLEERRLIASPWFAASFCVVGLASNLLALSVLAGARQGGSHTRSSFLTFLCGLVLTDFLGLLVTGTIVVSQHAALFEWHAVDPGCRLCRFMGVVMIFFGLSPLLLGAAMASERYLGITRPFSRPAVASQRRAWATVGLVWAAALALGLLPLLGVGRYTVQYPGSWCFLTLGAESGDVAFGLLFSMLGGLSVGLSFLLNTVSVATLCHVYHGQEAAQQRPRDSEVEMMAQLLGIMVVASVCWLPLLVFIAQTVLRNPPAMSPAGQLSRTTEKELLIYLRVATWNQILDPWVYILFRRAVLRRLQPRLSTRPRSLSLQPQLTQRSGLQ
From the text: as §1, §2

[7] = target: T1, cynomolgus monkey B2 receptor; experiment: cell-based
[8] = arithmetic mean, read-out: IC50 (nM) Mean
[9] = arithmetic mean, read-out: Ki (nM) Mean
[10] = geometric mean, read-out: IC50 (nM) Geometric mean
[11] = geometric mean, read-out: Ki (nM) Geometric mean
[12] = antagonist 10 nM, Compound 2 2.25, Compound 3 1.52
[13] = antagonist 100 nM, Compound 2 2.25, Compound 3 1.52
[14] = antagonist 1 μM, Compound 2 2.25, Compound 3 1.52
[15] = antagonist 10 μM, Compound 2 2.25
[16] = arithmetic mean, read-out: Kb (nM) Mean
[17] = geometric mean, read-out: Kb (nM) Geometric mean

Structure (SMILES) | microsomal CLint at 1 µM (microsomal stability) | IC50 (B2 receptor [2]; [8]) | Ki (B2 receptor [2]; [9]) | IC50 (B2 receptor [2]; [10]) | Ki (B2 receptor [2]; [11]) | fold lower affinity compared to Compound 3 and icatibant (B2 receptor [2]) | type of antagonism of BK [3] | pA2 [3] | Kb [3] | Schild plot slope [3] | Maximal BK-induced response in absolute force units ± S.E.M. [3, 12] | Maximal BK-induced response in absolute force units ± S.E.M. [3, 13] | Maximal BK-induced response in absolute force units ± S.E.M. [3, 14] | Maximal BK-induced response in absolute force units ± S.E.M. [3, 15] | pA2 value converted into nM [3] | IC50 (B2 receptor [5]; [8]) | Kb (B2 receptor [5]; [16]) | IC50 (B2 receptor [5]; [10]) | Kb (B2 receptor [5]; [17]) | Papp A→B at 60 min, 10 µM [6] | further results
N=C(N)NCCC[C@H](NC(=O)[C@H](Cc1ccccc1)NC(=O)[C@@H]1CCCN1C(=O)[C@H](CO)NC(=O)[C@H](Cc1ccccc1)NC(=O)CNC(=O)[C@@H]1CCCN1C(=O)[C@@H]1CCCN1C(=O)[C@@H](N)CCCNC(=N)N)C(=O)O [BK] (H-RPPGFSPFR-OH) |  |  |  |  |  |  |  |  |  |  |  |  |  |  |  |  |  |  |  |  | average agonist EC80, Ca^2+ mobilization [1]: 0.539 ± 0.16 nM
Cc1cc(-c2ncnn2C)c2cccc(OCc3c(Cl)cncc3C(C)NC(=O)COC(F)F)c2n1 (racemic) [Compound 2, rac-N-(1-(5-chloro-4-((2-methyl-4-(1-methyl-1H-1,2,4-triazol-5-yl)quinolin-8-yloxy)methyl)pyridin-3-yl)ethyl)-2-(difluoromethoxy)acetamide] | 497 µL/min/mg | 7.6 nM | 3.9 nM | 7.6 nM | 3.9 nM | about 7 fold | competitive | 9.02 ± 0.31 | 0.955 nM | −0.65 | 2.07 ± 0.30 grams-weight | 2.26 ± 0.42 grams-weight | 2.00 ± 0.32 grams-weight | 1.82 ± 0.18 grams-weight | 0.95 nM | 9.57 nM | 1.08 nM | 8.3 nM | 0.95 nM | 39 nm/s | antagonist concentration that significantly reduced the c-Fos response to BK (human myc-B2 receptor; 60 min): 100 nM; effect on BK-induced c-Fos accumulation (human myc-B2 receptor; co-treatment between 10 nM and 1 μM): inhibited this response in a concentration-dependent manner; fold lower intrinsic clearance compared with Compound 3 (so in the source) (microsomal stability; rat microsomal stability assay): 18 fold; effect on serotonin-induced contraction (5-HT2A receptor): failed to modify; concentration with clear efficacy in inhibiting BK-induced endocytosis [4]: ≥ 100 nM; fold lower potency compared with Compound 3 (B2 receptor [5]; B2 receptor): 4.0 fold; Papp B→A at 60 min, 10 µM [6]: 299 nm/s; efflux ratio at 60 min, 10 µM [6]: 7.7; effect on U-46619-induced contraction (prostanoid TP receptor): failed to modify
Cc1cc(-c2ncnn2C)c2cccc(OCc3c(Cl)cncc3CNC(=O)C3CCCCC3)c2n1 [Compound 1, N-((5-chloro-4-((2-methyl-4-(1-methyl-1H-1,2,4-triazol-5-yl)quinolin-8-yloxy)methyl)pyridin-3-yl)methyl)cyclohexanecarboxamide] | 960 µL/min/mg | 7.4 nM | 3.8 nM | 7.4 nM | 3.8 nM | about 7 fold | competitive | 8.58 ± 0.26 | 2.63 nM | −0.62 | 1.48 ± 0.24 grams-weight | 2.08 ± 0.28 grams-weight | 1.46 ± 0.20 grams-weight | 1.67 ± 0.28 grams-weight | 2.63 nM | 11.3 nM | 1.3 nM | 11 nM | 1.24 nM | 55 nm/s | Papp B→A at 60 min, 10 µM [6]: 209 nm/s; efflux ratio at 60 min, 10 µM [6]: 5.5
NC(N)=NCCC[C@H](NC(=O)[C@H](Cc1ccccc1)NC(=O)[C@@H]1CCCN1C(=O)[C@H](CO)NC(=O)[C@H](Cc1ccccc1)NC(=O)CNC(=O)[C@@H]1CCCN1C(=O)[C@@H]1CCCN1C(=O)[C@@H](N)CCCN=C(N)N)C(=O)O [BK] (H-RPPGFSPFR-OH) |  |  |  |  |  |  |  |  |  |  |  |  |  |  |  |  |  |  |  |  | EC50 [7]: 0.155 ± 0.043 nM
